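These data come from cells grown in 96-well plates and exposed to compound for 48 hours at five concentrations. GI50 is the concentration that inhibits growth by half.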 The source made the active and inactive calls. Rule as the data show it: active = GI50 up to about 1.1 µM and inactive = higher. Where a SMILES comes first, the peptide text is derived from it. [ ]: non-standard residue; d: D form. Phe(4-Cl) = N[CH](Cc1ccc(Cl)cc1)C(=O)O
Tests used:
Test in all cases: inhibition of tumour cell growth, NCI panel, 48 h
SN12C = test system: SN12C
K562 = test system: K562
UACC-62 = test system: UACC-62
SF-268 = test system: SF-268
SK-OV-3 = test system: SK-OV-3
HOP-92 = test system: HOP-92
SNB-19 = test system: SNB-19
RPMI-8226 = test system: RPMI-8226
NCI-H23 = test system: NCI-H23
UACC-257 = test system: UACC-257
SNB-75 = test system: SNB-75
OVCAR-3 = test system: OVCAR-3
KM12 = test system: KM12
HCT-15 = test system: HCT-15
HL-60 = test system: HL-60
SK-MEL-5 = test system: SK-MEL-5
EKVX = test system: EKVX
HCC 2998 = test system: HCC 2998
RXF 393 = test system: RXF 393

| SMILES | GI50 (SN12C) | GI50 (K562) | GI50 (UACC-62) | GI50 (SF-268) | GI50 (SK-OV-3) | GI50 (HOP-92) | GI50 (SNB-19) | GI50 (RPMI-8226) | GI50 (NCI-H23) | GI50 (UACC-257) | GI50 (SNB-75) | GI50 (OVCAR-3) | GI50 (KM12) | GI50 (HCT-15) [µM] | GI50 (HL-60) | GI50 (SK-MEL-5) | GI50 (EKVX) | GI50 (HCC 2998) | GI50 (RXF 393) |
| --- | --- | --- | --- | --- | --- | --- | --- | --- | --- | --- | --- | --- | --- | --- | --- | --- | --- | --- | --- |
| COC(=O)C1(F)C(=O)NC(=O)NC1OC (centres undefined) | 69 µM (inactive) | 96.2 µM (inactive) | 18.6 µM (inactive) | 45.4 µM (inactive) | > 100 µM (inactive) | 45.7 µM (inactive) | > 100 µM (inactive) | 90.6 µM (inactive) | 30.3 µM (inactive) | > 100 µM (inactive) | 39.2 µM (inactive) | 94.2 µM (inactive) | 21.6 µM (inactive) | 22.9 | 3.09 µM (inactive) | 9.84 µM (inactive) |  |  |  |
| CCOP(=O)(OCC)/C(C#N)=C/c1ccco1 | > 100 µM (inactive) | > 100 µM (inactive) | > 100 µM (inactive) | > 100 µM (inactive) | > 100 µM (inactive) | > 100 µM (inactive) |  | > 100 µM (inactive) | > 100 µM (inactive) | > 100 µM (inactive) | > 100 µM (inactive) |  | > 100 µM (inactive) | > 100 | > 100 µM (inactive) | > 100 µM (inactive) | > 100 µM (inactive) | > 100 µM (inactive) |  |
| O=c1c2ccc(Br)cc2nc(-c2ccccc2)n1NC1OC(CO)C(O)C(O)C1O (centres undefined) | > 100 µM (inactive) | > 100 µM (inactive) | > 100 µM (inactive) | > 100 µM (inactive) | > 100 µM (inactive) | > 100 µM (inactive) | > 100 µM (inactive) | > 100 µM (inactive) | > 100 µM (inactive) | > 100 µM (inactive) | > 100 µM (inactive) | > 100 µM (inactive) | > 100 µM (inactive) | > 100 | > 100 µM (inactive) | > 100 µM (inactive) | > 100 µM (inactive) | > 100 µM (inactive) |  |
| CC(=O)OCC(=O)[C@@]1(O)CC[C@H]2[C@@H]3CCC4=CC(=O)[C@H](C)C[C@]4(C)[C@H]3[C@@H](O)C[C@@]21C | > 100 µM (inactive) | > 100 µM (inactive) | > 100 µM (inactive) | > 100 µM (inactive) | > 100 µM (inactive) | > 100 µM (inactive) | > 100 µM (inactive) | > 100 µM (inactive) | > 100 µM (inactive) | > 100 µM (inactive) | > 100 µM (inactive) | > 100 µM (inactive) | > 100 µM (inactive) | > 100 | > 100 µM (inactive) | > 100 µM (inactive) | > 100 µM (inactive) | > 100 µM (inactive) |  |
| NC(=S)Nc1ccc(S(=O)(=O)Nc2ccc(S(N)(=O)=O)cc2)cc1 | > 100 µM (inactive) | > 100 µM (inactive) | > 100 µM (inactive) |  |  | > 100 µM (inactive) | > 100 µM (inactive) | > 100 µM (inactive) | > 100 µM (inactive) | > 100 µM (inactive) |  | > 100 µM (inactive) | > 100 µM (inactive) | > 100 | > 100 µM (inactive) | > 100 µM (inactive) | > 100 µM (inactive) |  | > 100 µM (inactive) |
| CC(O)C(NC(=O)C(Cc1ccccc1)NC(=O)C(NC(=O)C(CCCCN)NC(=O)C(Cc1c[nH]c2ccccc12)NC(=O)C(Cc1ccc(O)cc1)NC(=O)C(Cc1ccc(Cl)cc1)NC(=O)C(N)Cc1ccccc1)C(C)O)C(N)=O (centres undefined) (H-F[Phe(4-Cl)]YWKTFT-NH2; configuration not given here) | 41.8 µM (inactive) | 15.6 µM (inactive) | 19.1 µM (inactive) |  | 27.6 µM (inactive) |  | 18.4 µM (inactive) | 14 µM (inactive) | 19.8 µM (inactive) | > 10 µM (inactive) | 21 µM (inactive) | 17.4 µM (inactive) | 13.5 µM (inactive) | 17.9 | 15.3 µM (inactive) |  | 16.4 µM (inactive) | 25.4 µM (inactive) | 16 µM (inactive) |
